Blank lines part the entries; values can stand above or below the compound they belong to.
Legend:
Assay in all cases: FRET-based coupled-enzyme protein kinase inhibition assay
Format in all cases: biochemical
Details in all cases: compound at 10 µM, 1% DMSO
MET (cMet) = MET (cMet) (Homo sapiens, UniProt P08581)
Procedure, shortened: (§1)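 Inhibition was quantified ratiometrically, as coumarin over fluorescein emission following 400 nm excitation, on a doubly labeled peptide whose cleavage by development reagent requires it to remain unphosphorylated. Kinase reactions ran 60 min at room temperature with ATP at apparent Km.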

IGF1R = IGF1R (Homo sapiens, UniProt P08069)
Chain of IGF1R (P08069 31-1367, species assumed): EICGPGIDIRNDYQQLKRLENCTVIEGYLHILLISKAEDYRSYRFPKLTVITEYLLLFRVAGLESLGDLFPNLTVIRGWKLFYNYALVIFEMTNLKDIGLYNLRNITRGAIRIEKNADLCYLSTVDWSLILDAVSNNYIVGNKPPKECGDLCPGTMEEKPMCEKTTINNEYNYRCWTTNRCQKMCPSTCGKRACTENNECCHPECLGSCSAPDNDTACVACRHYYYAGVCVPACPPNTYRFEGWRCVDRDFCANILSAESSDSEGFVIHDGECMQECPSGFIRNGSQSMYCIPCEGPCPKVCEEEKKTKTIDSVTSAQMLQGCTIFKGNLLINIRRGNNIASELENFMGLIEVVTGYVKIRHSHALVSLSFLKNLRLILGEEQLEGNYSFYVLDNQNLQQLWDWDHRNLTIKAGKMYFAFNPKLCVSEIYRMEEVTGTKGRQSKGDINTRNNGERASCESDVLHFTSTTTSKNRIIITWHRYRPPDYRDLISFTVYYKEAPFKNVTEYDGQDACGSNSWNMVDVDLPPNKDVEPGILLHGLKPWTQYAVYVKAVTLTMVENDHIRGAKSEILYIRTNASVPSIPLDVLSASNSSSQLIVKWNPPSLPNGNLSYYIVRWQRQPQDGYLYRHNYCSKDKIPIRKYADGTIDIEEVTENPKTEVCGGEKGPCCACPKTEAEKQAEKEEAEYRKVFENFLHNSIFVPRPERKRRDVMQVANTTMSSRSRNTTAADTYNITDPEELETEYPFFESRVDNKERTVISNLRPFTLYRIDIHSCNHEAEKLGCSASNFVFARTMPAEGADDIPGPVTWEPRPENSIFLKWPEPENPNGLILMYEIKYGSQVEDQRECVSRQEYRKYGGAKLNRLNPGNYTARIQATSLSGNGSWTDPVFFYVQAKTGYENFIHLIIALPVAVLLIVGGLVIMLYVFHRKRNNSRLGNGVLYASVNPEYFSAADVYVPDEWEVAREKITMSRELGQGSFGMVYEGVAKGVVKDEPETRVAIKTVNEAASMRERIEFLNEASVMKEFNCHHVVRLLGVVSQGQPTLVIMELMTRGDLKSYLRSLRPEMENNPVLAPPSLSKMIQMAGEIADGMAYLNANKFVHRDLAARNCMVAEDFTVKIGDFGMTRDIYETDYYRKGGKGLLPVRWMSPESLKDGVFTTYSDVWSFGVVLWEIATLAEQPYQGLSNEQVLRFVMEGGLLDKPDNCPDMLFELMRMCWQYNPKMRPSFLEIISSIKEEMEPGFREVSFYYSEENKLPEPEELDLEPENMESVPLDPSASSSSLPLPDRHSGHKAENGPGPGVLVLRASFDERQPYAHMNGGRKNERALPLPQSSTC
Procedure, shortened: as §1

MAPK8 (JNK1) = MAPK8 (JNK1) (Homo sapiens, UniProt P45983)
Chain of MAPK8 (JNK1) (P45983 whole entry, species assumed): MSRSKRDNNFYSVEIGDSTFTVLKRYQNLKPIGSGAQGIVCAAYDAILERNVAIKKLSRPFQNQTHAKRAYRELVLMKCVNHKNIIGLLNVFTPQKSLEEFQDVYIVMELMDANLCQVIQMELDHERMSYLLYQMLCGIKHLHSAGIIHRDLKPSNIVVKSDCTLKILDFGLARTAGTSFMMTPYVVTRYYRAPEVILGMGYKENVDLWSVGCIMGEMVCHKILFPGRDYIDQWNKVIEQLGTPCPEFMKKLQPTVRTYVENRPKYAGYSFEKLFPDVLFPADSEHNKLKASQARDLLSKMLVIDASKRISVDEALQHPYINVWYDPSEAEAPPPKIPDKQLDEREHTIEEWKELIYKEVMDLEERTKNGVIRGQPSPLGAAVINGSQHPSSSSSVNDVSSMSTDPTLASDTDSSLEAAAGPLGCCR
Procedure, shortened: as §1

IRAK4 = target: T1, IRAK4 (Homo sapiens, UniProt Q9NWZ3)
T1 sequence (Q9NWZ3 1-460): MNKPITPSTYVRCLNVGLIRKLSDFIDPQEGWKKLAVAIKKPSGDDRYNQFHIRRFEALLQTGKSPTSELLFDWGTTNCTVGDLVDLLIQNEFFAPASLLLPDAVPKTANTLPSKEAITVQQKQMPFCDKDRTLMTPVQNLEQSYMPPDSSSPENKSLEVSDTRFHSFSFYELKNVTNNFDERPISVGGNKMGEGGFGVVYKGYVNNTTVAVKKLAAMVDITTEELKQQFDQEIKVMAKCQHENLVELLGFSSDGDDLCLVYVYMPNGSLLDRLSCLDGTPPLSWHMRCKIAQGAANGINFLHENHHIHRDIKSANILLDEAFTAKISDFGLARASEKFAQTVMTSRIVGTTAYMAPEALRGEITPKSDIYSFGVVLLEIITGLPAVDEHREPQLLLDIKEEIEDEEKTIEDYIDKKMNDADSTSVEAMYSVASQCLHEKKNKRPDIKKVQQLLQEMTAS
Procedure, shortened: as §1

IKBKB (IKK beta) = target: T2, IKBKB (IKK beta) (Homo sapiens, UniProt O14920)
T2 sequence (O14920 1-756): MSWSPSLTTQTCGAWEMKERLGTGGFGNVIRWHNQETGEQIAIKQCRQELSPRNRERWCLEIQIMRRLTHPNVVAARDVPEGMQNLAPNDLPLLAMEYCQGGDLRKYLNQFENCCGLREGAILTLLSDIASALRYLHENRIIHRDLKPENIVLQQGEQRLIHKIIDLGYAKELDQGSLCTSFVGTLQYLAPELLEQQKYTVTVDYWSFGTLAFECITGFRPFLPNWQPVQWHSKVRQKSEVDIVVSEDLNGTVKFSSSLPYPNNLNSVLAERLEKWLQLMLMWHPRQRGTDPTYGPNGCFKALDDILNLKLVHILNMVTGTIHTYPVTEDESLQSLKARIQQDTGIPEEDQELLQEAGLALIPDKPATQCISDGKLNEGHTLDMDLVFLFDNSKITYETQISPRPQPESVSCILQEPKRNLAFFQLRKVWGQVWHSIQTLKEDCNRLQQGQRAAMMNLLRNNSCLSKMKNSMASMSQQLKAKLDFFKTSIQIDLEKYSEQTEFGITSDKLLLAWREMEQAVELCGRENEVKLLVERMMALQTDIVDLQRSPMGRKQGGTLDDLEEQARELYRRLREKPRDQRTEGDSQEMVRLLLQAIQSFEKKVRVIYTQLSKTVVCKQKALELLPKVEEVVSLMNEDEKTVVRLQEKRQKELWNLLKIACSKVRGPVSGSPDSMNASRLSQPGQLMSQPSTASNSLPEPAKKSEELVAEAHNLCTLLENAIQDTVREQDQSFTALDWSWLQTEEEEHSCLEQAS
Procedure, shortened: as §1

Chain of MET (cMet) (P08581 25-1390): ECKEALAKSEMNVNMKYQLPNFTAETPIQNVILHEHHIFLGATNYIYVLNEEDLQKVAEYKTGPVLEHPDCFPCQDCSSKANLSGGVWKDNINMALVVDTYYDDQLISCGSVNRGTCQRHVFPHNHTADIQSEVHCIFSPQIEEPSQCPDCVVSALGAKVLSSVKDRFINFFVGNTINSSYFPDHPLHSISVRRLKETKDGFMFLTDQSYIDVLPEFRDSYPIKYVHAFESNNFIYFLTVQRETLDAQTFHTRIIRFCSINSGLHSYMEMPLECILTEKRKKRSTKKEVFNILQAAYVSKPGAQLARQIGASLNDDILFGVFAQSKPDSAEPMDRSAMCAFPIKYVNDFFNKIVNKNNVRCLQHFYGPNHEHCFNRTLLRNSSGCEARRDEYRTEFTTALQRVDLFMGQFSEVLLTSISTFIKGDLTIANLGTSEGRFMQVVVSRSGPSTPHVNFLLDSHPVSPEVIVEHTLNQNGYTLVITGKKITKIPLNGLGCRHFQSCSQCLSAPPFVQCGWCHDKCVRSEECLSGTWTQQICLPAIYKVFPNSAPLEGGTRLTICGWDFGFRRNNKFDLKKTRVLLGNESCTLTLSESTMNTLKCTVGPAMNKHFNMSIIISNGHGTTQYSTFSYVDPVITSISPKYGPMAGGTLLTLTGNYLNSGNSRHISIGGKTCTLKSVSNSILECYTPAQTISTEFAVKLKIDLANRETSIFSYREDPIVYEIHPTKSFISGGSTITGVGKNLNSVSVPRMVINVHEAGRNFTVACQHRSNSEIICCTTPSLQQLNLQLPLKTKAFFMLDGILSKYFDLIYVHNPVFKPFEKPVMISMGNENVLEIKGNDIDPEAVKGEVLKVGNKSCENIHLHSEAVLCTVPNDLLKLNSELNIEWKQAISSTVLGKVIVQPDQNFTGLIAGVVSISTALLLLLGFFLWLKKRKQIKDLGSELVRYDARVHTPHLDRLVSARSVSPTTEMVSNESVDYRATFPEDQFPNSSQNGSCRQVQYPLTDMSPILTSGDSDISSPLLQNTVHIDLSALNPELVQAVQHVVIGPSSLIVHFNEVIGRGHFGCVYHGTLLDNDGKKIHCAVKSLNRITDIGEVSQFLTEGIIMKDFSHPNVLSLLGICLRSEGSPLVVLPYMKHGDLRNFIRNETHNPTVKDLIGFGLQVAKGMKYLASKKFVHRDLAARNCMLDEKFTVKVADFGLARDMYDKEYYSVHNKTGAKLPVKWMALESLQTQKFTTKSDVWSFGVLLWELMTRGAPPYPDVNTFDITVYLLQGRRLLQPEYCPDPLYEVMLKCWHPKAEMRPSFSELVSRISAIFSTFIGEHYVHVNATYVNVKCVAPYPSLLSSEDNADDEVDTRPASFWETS

Structure (SMILES): Nc1ncnc2c1ncn2[C@@H]1O[C@H](COC(=O)N2CCN(Cc3ccccc3)CC2CO)[C@@H](O)[C@H]1O (some centres unmarked) [Compound C13]
inhibition at 10 µM (MET (cMet)): 0%
inhibition at 10 µM (IGF1R): 2%
inhibition at 10 µM (MAPK8 (JNK1)): 2%
inhibition at 10 µM (IRAK4): 13%
inhibition at 10 µM (IKBKB (IKK beta)): -7%

Structure (SMILES): CC(C)N1CCC(NC(=O)OC[C@H]2O[C@@H](n3cnc4c(N)ncnc43)[C@H](O)[C@@H]2O)CC1 [Compound C19]
inhibition at 10 µM (MET (cMet)): 2%
inhibition at 10 µM (IGF1R): -2%
inhibition at 10 µM (MAPK8 (JNK1)): 0%
inhibition at 10 µM (IRAK4): -3%
inhibition at 10 µM (IKBKB (IKK beta)): -6%

Structure (SMILES): Nc1ncnc2c1ncn2[C@@H]1O[C@H](COC(=O)NCCN2CCCC2=O)[C@@H](O)[C@H]1O [Compound C22]
inhibition at 10 µM (MET (cMet)): 1%
inhibition at 10 µM (IGF1R): 4%
inhibition at 10 µM (MAPK8 (JNK1)): 5%
inhibition at 10 µM (IRAK4): 1%
inhibition at 10 µM (IKBKB (IKK beta)): -13%

Structure (SMILES): Nc1ncnc2c1ncn2[C@@H]1O[C@H](COC(=O)N2CCN(CCc3ccccc3)CC2)[C@@H](O)[C@H]1O [Compound C26]
inhibition at 10 µM (MET (cMet)): -5%
inhibition at 10 µM (IGF1R): 8%
inhibition at 10 µM (MAPK8 (JNK1)): 8%
inhibition at 10 µM (IRAK4): 2%
inhibition at 10 µM (IKBKB (IKK beta)): -8%

Structure (SMILES): Nc1ncnc2c1ncn2[C@@H]1O[C@H](COC(=O)N2CCC(Cc3ccc(F)cc3)C2)[C@@H](O)[C@H]1O (some centres unmarked) [Compound C66]
inhibition at 10 µM (MET (cMet)): -14%
inhibition at 10 µM (IGF1R): 1%
inhibition at 10 µM (MAPK8 (JNK1)): 6%
inhibition at 10 µM (IRAK4): -2%
inhibition at 10 µM (IKBKB (IKK beta)): -11%

Structure (SMILES): CS(=O)(=O)N1CC2(CCN(C(=O)OC[C@H]3O[C@@H](n4cnc5c(N)ncnc54)[C@H](O)[C@@H]3O)CC2)c2ccccc21 [Compound C98]
inhibition at 10 µM (MET (cMet)): -12%
inhibition at 10 µM (IGF1R): 8%
inhibition at 10 µM (MAPK8 (JNK1)): 4%
inhibition at 10 µM (IRAK4): -17%
inhibition at 10 µM (IKBKB (IKK beta)): -8%

Structure (SMILES): Nc1ncnc2c1ncn2[C@@H]1O[C@H](COC(=O)N2CCS(=O)(=O)CC2)[C@@H](O)[C@H]1O [Compound C100]
inhibition at 10 µM (MET (cMet)): -3%
inhibition at 10 µM (IGF1R): 11%
inhibition at 10 µM (MAPK8 (JNK1)): 7%
inhibition at 10 µM (IRAK4): 0%
inhibition at 10 µM (IKBKB (IKK beta)): -9%

Other lines, results leading:

inhibition at 10 µM (MET (cMet)): 0%
inhibition at 10 µM (IGF1R): 0%
inhibition at 10 µM (MAPK8 (JNK1)): 12%
inhibition at 10 µM (IRAK4): -2%
inhibition at 10 µM (IKBKB (IKK beta)): -10%
Structure (SMILES): Nc1ncnc2c1ncn2[C@@H]1O[C@H](COC(=O)NCCCc2nc3ccccc3[nH]2)[C@@H](O)[C@H]1O [Compound C1]

inhibition at 10 µM (MET (cMet)): 3%
inhibition at 10 µM (IGF1R): 11%
inhibition at 10 µM (MAPK8 (JNK1)): 14%
inhibition at 10 µM (IRAK4): 3%
inhibition at 10 µM (IKBKB (IKK beta)): -6%
Structure (SMILES): C[C@@H](NC(=O)OC[C@H]1O[C@@H](n2cnc3c(N)ncnc32)[C@H](O)[C@@H]1O)c1ccc(Cl)cc1 [Compound C4]

inhibition at 10 µM (MET (cMet)): -16%
inhibition at 10 µM (IGF1R): 5%
inhibition at 10 µM (MAPK8 (JNK1)): 13%
inhibition at 10 µM (IRAK4): -8%
inhibition at 10 µM (IKBKB (IKK beta)): -6%
Structure (SMILES): Nc1ncnc2c1ncn2[C@@H]1O[C@H](COC(=O)NC[C@H](O)CO)[C@@H](O)[C@H]1O [Compound C8]

inhibition at 10 µM (MET (cMet)): -11%
inhibition at 10 µM (IGF1R): 9%
inhibition at 10 µM (MAPK8 (JNK1)): 3%
inhibition at 10 µM (IRAK4): -2%
inhibition at 10 µM (IKBKB (IKK beta)): -8%
Structure (SMILES): Nc1ncnc2c1ncn2[C@@H]1O[C@H](COC(=O)N2CCC[C@H]2CO)[C@@H](O)[C@H]1O [Compound C9]

inhibition at 10 µM (MET (cMet)): -1%
inhibition at 10 µM (IGF1R): 8%
inhibition at 10 µM (MAPK8 (JNK1)): 6%
inhibition at 10 µM (IRAK4): 6%
inhibition at 10 µM (IKBKB (IKK beta)): -11%
Structure (SMILES): Nc1ncnc2c1ncn2[C@@H]1O[C@H](COC(=O)N[C@@H]2CCN(Cc3ccccc3)C2)[C@@H](O)[C@H]1O [Compound C10]

inhibition at 10 µM (MET (cMet)): 8%
inhibition at 10 µM (IGF1R): 7%
inhibition at 10 µM (MAPK8 (JNK1)): -2%
inhibition at 10 µM (IRAK4): 7%
inhibition at 10 µM (IKBKB (IKK beta)): -3%
Structure (SMILES): CN1CCN(CCNC(=O)OC[C@H]2O[C@@H](n3cnc4c(N)ncnc43)[C@H](O)[C@@H]2O)CC1 [Compound C46]

inhibition at 10 µM (MET (cMet)): -2%
inhibition at 10 µM (IGF1R): 1%
inhibition at 10 µM (MAPK8 (JNK1)): 8%
inhibition at 10 µM (IRAK4): 0%
inhibition at 10 µM (IKBKB (IKK beta)): -12%
Structure (SMILES): N#CCCN1CCN(C(=O)OC[C@H]2O[C@@H](n3cnc4c(N)ncnc43)[C@H](O)[C@@H]2O)CC1 [Compound C70]

inhibition at 10 µM (MET (cMet)): -12%
inhibition at 10 µM (IGF1R): 8%
inhibition at 10 µM (MAPK8 (JNK1)): 4%
inhibition at 10 µM (IRAK4): -1%
inhibition at 10 µM (IKBKB (IKK beta)): -10%
Structure (SMILES): CN(C)CCNC(=O)OC[C@H]1O[C@@H](n2cnc3c(N)ncnc32)[C@H](O)[C@@H]1O [Compound C85]

inhibition at 10 µM (MET (cMet)): -4%
inhibition at 10 µM (IGF1R): 2%
inhibition at 10 µM (MAPK8 (JNK1)): 5%
inhibition at 10 µM (IRAK4): -5%
inhibition at 10 µM (IKBKB (IKK beta)): -10%
Structure (SMILES): Nc1ncnc2c1ncn2[C@@H]1O[C@H](COC(=O)N2CCN(C(=O)N3CCOCC3)CC2)[C@@H](O)[C@H]1O [Compound C89]
